From patent US20060040884A1, “Antisense oligonucleotides directed to genes regulated by trapoxin-induced HDAC inhibition” (priority 2001, published 2006)
Strand notation (5' to 3'): a small letter for the sugar, then the base; units joined by * are phosphorothioate-linked, units joined directly phosphodiester-linked; [ ] holds rarer units or linkages, { } end groups; capitals alone tell only the bases. e = 2'-O-(2-methoxyethyl) (MOE); [5mC] = 5-methylcytosine; d = 2'-deoxy (DNA)

How the values were obtained:
[1] = system: RhoB; assay: RhoB expression in H1299 cells transfected with antisense oligonucleotides (Western blot); format: cell-based, human; details: 400 nM oligonucleotide with LIPOFECTIN, harvested 72 h after first transfection
Description: (§1) H1299 cells are transfected with HDAC1 antisense oligonucleotides NAS 6887, HDAC1 mismatch oligonucleotide NAS 7618, luciferase antisense oligonucleotide NAS 5596, or mock transfected. The following are the sequences of the modified oligonucleotides:
modified such that “s” stands for phosphorothioate, upper case refers to 2′-H, lower case refers to 2′-O-methoxyethyl and “c” refers to 2′-methoxyethyl 5-methylcytidine. Transfection is performed using LIPOFECTIN (Life Technologies) as a carrier according to the manufacturer's instruction. The transfection mixture is prepared in OPTI-MEM (Life Technologies) containing 6 μl LIPOFECTIN per 400 nM oligonucleotide. Transfection is carried out for 4 h, and is repeated twice on two consecutive days. Cells are harvested 72 h after the first transfection. RNA and proteins are isolated using Trizol reagent (Life Technologies) according to the manufacturer's instruction. Traces of DNA are removed from RNA samples using DNA-free (Ambion, Austin, Tex.) according to the manufacturer's protocol. RNA concentration is measured on CytoFluor Multi-well plate reader (PerSeptive Biosystems, Framingham, Mass.) using RIBO GREEN RNA Quantification kit (Molecular Probes, Eugene, Oreg.). Real Time RT-PCR
To determine the effect of specific HDAC1 blockade on RhoB expression, antisense oligonucleotides against HDAC1 were used. Potent antisense oligonucleotides against HDAC1 as well as oligonucleotides with mismatched nucleotides were synthesized and transfected into H1299 cells as specifically disclosed herein and as described in Examples 6-9. […] RNA and protein were isolated from H1299 cells transfected with the HDAC1 antisense oligonucleotides (NAS 6887), the corresponding mismatch (NAS 7618) and the unrelated luciferase control oligonucleotide (NAS 5596), and were analysed by real time RT-PCR and Western blot for HDAC1 and RhoB expression level. […] In contrast, no effects on RhoB expression were found in cells transfected with the NAS 7618 and NAS 5596 oligonucleotides.

[2] = system: HDAC1; assay: HDAC1 expression in H1299 cells transfected with antisense oligonucleotides (real time RT-PCR, Western blot); format: cell-based, human
Description: as §1
modified such that “s” stands for phosphorothioate, upper case refers to 2′-H, lower case refers to 2′-O-methoxyethyl and “c” refers to 2′-methoxyethyl 5-methylcytidine. Transfection is performed using LIPOFECTIN (Life Technologies) as a carrier according to the manufacturer's instruction. The transfection mixture is prepared in OPTI-MEM (Life Technologies) containing 6 μl LIPOFECTIN per 400 nM oligonucleotide. Transfection is carried out for 4 h, and is repeated twice on two consecutive days. […] RNA concentration is measured on CytoFluor Multi-well plate reader (PerSeptive Biosystems, Framingham, Mass.) using RIBO GREEN RNA Quantification kit (Molecular Probes, Eugene, Oreg.). […]
To determine the effect of specific HDAC1 blockade on RhoB expression, antisense oligonucleotides against HDAC1 were used. […] RNA and protein were isolated from H1299 cells transfected with the HDAC1 antisense oligonucleotides (NAS 6887), the corresponding mismatch (NAS 7618) and the unrelated luciferase control oligonucleotide (NAS 5596), and were analysed by real time RT-PCR and Western blot for HDAC1 and RhoB expression level. […]

Row | Substance | RhoB expression (protein level) [1] | Expression of HDAC1 (real time RT-PCR and Western blot) ([2]; H1299 cells, 400 nM oligonucleotide with LIPOFECTIN, harvested 72 h after first transfection) | Inhibition of HDAC1 mRNA level ([2]; transfected H1299 cells)
1 | NAS 5596: luciferase antisense control oligonucleotide, SEQ ID NO 14: cct taCs CsTsGs CsTsAs Gsct ggc (antisense CCTTACCTGCTAGCTGGC; phosphorothioate modifications, chemistry not fully specified) | no effects | – | –
2 | NAS 6887: HDAC1 antisense oligonucleotide, SEQ ID NO 12: gct gtAs CsTsCs CsGsAs Csat gtt (antisense eGe[5mC]eTeGeTdA*dC*dT*dC*dC*dG*dA*dC*eAeTeGeTeT) | significantly induced | efficiently blocked | very potent inhibition
3 | NAS 7618: HDAC1 mismatch oligonucleotide, SEQ ID NO 13: gct ttAs CsGsCs CsTsAs Csag gtt (antisense GCTTTACGCCTACAGGTT; phosphorothioate modifications, chemistry not fully specified) | no effects | – | –
